Experimental data: patent publication US20090291945A1, “CYSTEINE PROTEASE INHIBITORS” (Teijin Pharma Limited, priority 2008, published 2009)

Target: T1, cathepsin K (Homo sapiens, UniProt P43235)
T1 construct: the active enzyme was obtained as the enzyme fraction by using detergent containing lysis buffer; made in house; host or cells: HEK293T (GenHunter Corporation), transient expression; detergent lysate used as enzyme fraction
T1 sequence (P43235 115-329): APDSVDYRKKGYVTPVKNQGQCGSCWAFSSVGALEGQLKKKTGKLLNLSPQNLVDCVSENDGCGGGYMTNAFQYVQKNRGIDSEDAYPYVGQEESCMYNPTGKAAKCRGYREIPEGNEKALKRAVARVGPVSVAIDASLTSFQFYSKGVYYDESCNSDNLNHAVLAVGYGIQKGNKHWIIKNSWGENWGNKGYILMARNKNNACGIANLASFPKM
Test: Cathepsin K inhibitory activity (fluorescent substrate Z-Leu-Arg-MCA)
Format: biochemical
Conditions: enzyme expressed in HEK293T; 15 min preincubation, 30 min reaction at room temperature, pH 5.5; read-out: Activity Intensity (cathepsin K inhibitory activity, pIC50 class) (converted)
Protocol: Cathepsin K inhibitory activities of the compounds synthesized according to the methods of the above examples were measured.
Cathepsin K used for evaluation of inhibitory activity was transiently expressed in an animal cell HEK293T (made by GenHunter Corporation) and the active enzyme was obtained as the enzyme fraction by using detergent containing lysis buffer.
The enzyme solution A was prepared at 2.1 times final concentration by diluting the enzyme fraction with assay buffer (50 mM sodium acetate, 50 mM sodium chloride, 2 mM DTT, pH 5.5). The test compound solutions B were prepared at 50 times final target concentrations by dimethylsulfoxide (DMSO). As a substrate solution C, a solution of a fluorescent substrate, benzyloxycarbonyl-L-leucyl-L-arginyl-4-methyl-coumaryl-7-amide (Z-Leu-Arg-MCA (Peptide Institute Inc.), was prepared at 10 μM by an assay buffer.
To the enzyme solution A (38.4 μL) were added the test compound solutions B (1.6 μL) and mixed individually. The mixtures were incubated at room temperature for 15 minutes. To the incubated solutions were added the substrate solution C (40 μL) and the mixtures were reacted at room temperature for 30 minutes respectively. The fluorescence intensities of the enzyme reaction solutions were measured at excitation wavelength of 355 nm and measurement wavelength of 460 nm and the enzyme activities were calculated from these fluorescence intensities caused by 7-amino-4-methylcoumarine released. The enzyme activity with using DMSO instead of the test compound solution B was taken as 100% and the inhibitory rates at each concentration of the test compound were calculated. The […] response curve was fitted to the plots. The 50% inhibitory concentration against cathepsin K was calculated from this curve.
Note that the symbols (+, ++, and +++) in this table represent the inhibitory activity values as below. Here, pIC50 is the value representing a negative logarithm of IC50, (−log10(IC50)). IC50 is a 50% inhibitory concentration.

CC[C@@H](CNc1ccc(OCCS(C)(=O)=O)cc1OC)NC(=O)[C@H](CC(C)C)N[C@@H](c1ccc(S(C)(=O)=O)cc1)C(F)(F)F [Compound 40]
IC50: 3.16 to 31.6 nM

CC[C@@H](CNc1ccc(OCCS(C)(=O)=O)cc1OC)NC(=O)[C@H](CC(C)C)N[C@@H](c1ccc(=O)[nH]c1)C(F)(F)F [Compound 41]
IC50: ≤ 3.16 nM

CC[C@@H](CNc1ccc(OCCO)cc1OC)NC(=O)[C@H](CC(C)(C)F)N[C@@H](c1ccccc1)C(F)(F)F [Compound 42]
IC50: ≤ 3.16 nM

CC[C@@H](CNc1ccc(OC)cc1OC)NC(=O)[C@H](CC(C)C)N[C@@H](c1ccc(=O)n(C)c1)C(F)(F)F [Compound 44]
IC50: 3.16 to 31.6 nM

CC[C@@H](CNc1ccc(-c2ccccc2)cc1)NC(=O)[C@H](CC(C)C)N[C@@H](c1ccccc1)C(F)(F)F [Compound 45]
IC50: 31.6 to 10000 nM

CC[C@@H](CNc1ccc(-n2cccn2)cc1)NC(=O)[C@H](CC(C)C)N[C@@H](c1ccccc1)C(F)(F)F [Compound 47]
IC50: 31.6 to 10000 nM

CC[C@@H](CNc1ccc(-n2cccn2)cc1)NC(=O)[C@H](CC(C)C)N[C@@H](c1ccc(OC)nc1)C(F)(F)F [Compound 48]
IC50: 31.6 to 10000 nM

CCOC(=O)C1CCN(c2ccc(NC[C@H](CC)NC(=O)[C@H](CC(C)C)N[C@@H](c3ccccc3)C(F)(F)F)cc2)CC1 [Compound 49]
IC50: ≤ 3.16 nM

CCOC(=O)C1CCN(c2ccc(NC[C@H](CC)NC(=O)[C@H](CC(C)C)N[C@@H](c3ccc(OC)nc3)C(F)(F)F)cc2)CC1 [Compound 50]
IC50: ≤ 3.16 nM

CC[C@@H](CNc1ccc(N2C[C@@H](C)O[C@@H](C)C2)cc1)NC(=O)[C@H](CC(C)C)N[C@@H](c1ccccc1)C(F)(F)F [Compound 51]
IC50: ≤ 3.16 nM

CC[C@@H](CNc1ccc(N2C[C@@H](C)O[C@@H](C)C2)cc1)NC(=O)[C@H](CC(C)C)N[C@@H](c1ccc(OC)nc1)C(F)(F)F [Compound 52]
IC50: ≤ 3.16 nM

CC[C@@H](CNc1ccc(N2CCCC2=O)cc1)NC(=O)[C@H](CC(C)C)N[C@@H](c1ccccc1)C(F)(F)F [Compound 53]
IC50: 3.16 to 31.6 nM

CC[C@@H](CNc1ccc(N2CCCC2=O)cc1)NC(=O)[C@H](CC(C)C)N[C@@H](c1ccc(OC)nc1)C(F)(F)F [Compound 54]
IC50: 3.16 to 31.6 nM

CCOC(=O)C1CCN(c2ccc(NC[C@H](CC)NC(=O)[C@H](CC(C)(C)F)N[C@@H](c3ccccc3)C(F)(F)F)cc2)CC1 [Compound 55]
IC50: ≤ 3.16 nM

CC[C@@H](CNc1ccc(N2CCO[C@@H](C(=O)OC)C2)cc1)NC(=O)[C@H](CC(C)C)N[C@@H](c1ccccc1)C(F)(F)F [Compound 56]
IC50: ≤ 3.16 nM

CC[C@@H](CNc1ccc(OC)cc1OC)NC(=O)[C@H](Cc1ccccc1)N[C@@H](c1ccccc1)C(F)(F)F [Compound 57]
IC50: 31.6 to 10000 nM

CC[C@@H](CNc1ccc(N2CCOCC2)cc1)NC(=O)[C@H](Cc1ccccc1)N[C@@H](c1ccccc1)C(F)(F)F [Compound 58]
IC50: 31.6 to 10000 nM

CC[C@@H](CNc1ccc(OC)cc1OC)NC(=O)[C@H](CC(C)(C)C)N[C@@H](c1ccccc1)C(F)(F)F [Compound 59]
IC50: ≤ 3.16 nM

CC[C@@H](CNc1ccc(OC)cc1OC)NC(=O)[C@@H](N[C@@H](c1ccccc1)C(F)(F)F)[C@@H](C)CC [Compound 60]
IC50: 3.16 to 31.6 nM

CC[C@@H](CNc1ccc(OC)cc1OC)NC(=O)[C@@H](N[C@@H](c1ccccc1)C(F)(F)F)C1CCCCC1 [Compound 61]
IC50: 31.6 to 10000 nM

CC[C@@H](CNc1ccc(OC)cc1OC)NC(=O)[C@H](Cc1ccccc1)N[C@@H](c1cccs1)C(F)(F)F [Compound 62]
IC50: 31.6 to 10000 nM

COc1ccc(NC[C@H](CC(C)C)NC(=O)[C@H](Cc2ccccc2)N[C@@H](c2ccccc2)C(F)(F)F)c(OC)c1 [Compound 63]
IC50: 31.6 to 10000 nM

COc1ccc(NC[C@H](CC(C)C)NC(=O)[C@H](CC(C)C)N[C@@H](c2ccccc2)C(F)(F)F)c(OC)c1 [Compound 64]
IC50: ≤ 3.16 nM

COc1ccc([C@H](N[C@@H](CC(C)C)C(=O)N[C@H](CNc2ccc(OC)cc2OC)CC(C)C)C(F)(F)F)cc1 [Compound 65]
IC50: ≤ 3.16 nM

COc1ccc(NC[C@H](CCSC)NC(=O)[C@H](CC(C)C)N[C@@H](c2ccccc2)C(F)(F)F)c(OC)c1 [Compound 66]
IC50: 3.16 to 31.6 nM

COc1ccc([C@H](N[C@@H](CC(C)C)C(=O)N[C@@H](CCSC)CNc2ccc(OC)cc2OC)C(F)(F)F)cc1 [Compound 67]
IC50: 3.16 to 31.6 nM

CC(C)C[C@H](N[C@@H](c1ccccc1)C(F)(F)F)C(=O)N[C@@H](CCC(=O)OCc1ccccc1)CNc1ccc(N2CCOCC2)cc1 [Compound 68]
IC50: ≤ 3.16 nM

CC(C)C[C@H](N[C@@H](c1ccccc1)C(F)(F)F)C(=O)N[C@H](CNc1ccc(N2CCOCC2)cc1)CC(=O)OCc1ccccc1 [Compound 69]
IC50: ≤ 3.16 nM

COc1ccc(NC[C@H](C)NC(=O)[C@H](CC(C)C)N[C@@H](c2ccccc2)C(F)(F)F)c(OC)c1 [Compound 70]
IC50: ≤ 3.16 nM

CC(C)C[C@H](N[C@@H](c1ccccc1)C(F)(F)F)C(=O)N[C@@H](C)CNc1ccc(N2CCOCC2)cc1 [Compound 71]
IC50: ≤ 3.16 nM

CC(C)C[C@H](N[C@@H](c1ccc(=O)[nH]c1)C(F)(F)F)C(=O)N[C@@H](C)CNc1ccc(N2CCOCC2)cc1 [Compound 72]
IC50: ≤ 3.16 nM

CC(C)C[C@H](N[C@@H](c1ccc(S(C)(=O)=O)cc1)C(F)(F)F)C(=O)N[C@@H](C)CNc1ccc(N2CCOCC2)cc1 [Compound 73]
IC50: ≤ 3.16 nM

CC(C)C[C@H](N[C@@H](c1cccnc1)C(F)(F)F)C(=O)N[C@@H](C)CNc1ccc(N2CCOCC2)cc1 [Compound 74]
IC50: ≤ 3.16 nM

COc1ccc([C@H](N[C@@H](CC(C)C)C(=O)N[C@@H](C)CNc2ccc(N3CCOCC3)cc2)C(F)(F)F)cn1 [Compound 75]
IC50: ≤ 3.16 nM

COc1ccc(NC[C@H](C)NC(=O)[C@H](CC(C)C)N[C@@H](c2ccc(=O)[nH]c2)C(F)(F)F)c(OC)c1 [Compound 76]
IC50: 3.16 to 31.6 nM

COc1ccc(NC[C@H](C)NC(=O)[C@H](CC(C)C)N[C@@H](c2ccc(S(C)(=O)=O)cc2)C(F)(F)F)c(OC)c1 [Compound 77]
IC50: 3.16 to 31.6 nM

COc1ccc(NC[C@H](C)NC(=O)[C@H](CC(C)C)N[C@@H](c2cccnc2)C(F)(F)F)c(OC)c1 [Compound 78]
IC50: 3.16 to 31.6 nM

COc1ccc(NC[C@H](C)NC(=O)[C@H](CC(C)C)N[C@@H](c2ccc(OC)nc2)C(F)(F)F)c(OC)c1 [Compound 79]
IC50: 3.16 to 31.6 nM

COc1ccc(NC[C@H](CCS(C)(=O)=O)NC(=O)[C@H](CC(C)C)N[C@@H](c2ccccc2)C(F)(F)F)c(OC)c1 [Compound 80]
IC50: 3.16 to 31.6 nM

COc1ccc(NC[C@H](CCS(C)(=O)=O)NC(=O)[C@H](CC(C)C)N[C@@H](c2ccc(S(C)(=O)=O)cc2)C(F)(F)F)c(OC)c1 [Compound 82]
IC50: 3.16 to 31.6 nM

COc1ccc(NC[C@H](CCS(C)(=O)=O)NC(=O)[C@H](CC(C)C)N[C@@H](c2cccnc2)C(F)(F)F)c(OC)c1 [Compound 83]
IC50: 3.16 to 31.6 nM

COc1ccc(NC[C@H](CCS(C)(=O)=O)NC(=O)[C@H](CC(C)C)N[C@@H](c2ccc(OC)nc2)C(F)(F)F)c(OC)c1 [Compound 84]
IC50: 31.6 to 10000 nM

CC[C@@H](CNc1ccc(OCCCC(=O)OC)cc1OC)NC(=O)[C@H](CC(C)C)N[C@@H](c1ccccc1)C(F)(F)F [Compound 85]
IC50: ≤ 3.16 nM

CCOC(=O)CCCCOc1ccc(NC[C@H](CC)NC(=O)[C@H](CC(C)C)N[C@@H](c2ccccc2)C(F)(F)F)c(OC)c1 [Compound 86]
IC50: ≤ 3.16 nM

CC(C)C[C@H](N[C@@H](c1ccccc1)C(F)(F)F)C(=O)N[C@@H](CCOCc1ccccc1)CNc1ccc(N2CCOCC2)cc1 [Compound 87]
IC50: ≤ 3.16 nM

CC[C@@H](CNc1ccccc1N1CCOCC1)NC(=O)[C@H](CC(C)C)N[C@@H](c1ccccc1)C(F)(F)F [Compound 88]
IC50: 31.6 to 10000 nM

CC[C@@H](CNc1ccc(OCC(=O)N(C)OC)cc1OC)NC(=O)[C@H](CC(C)C)N[C@@H](c1ccccc1)C(F)(F)F [Compound 89]
IC50: ≤ 3.16 nM

CC[C@@H](CNc1ccc(OCC(F)(F)F)cc1)NC(=O)[C@H](CC(C)C)N[C@@H](c1ccccc1)C(F)(F)F [Compound 90]
IC50: 31.6 to 10000 nM

CC(C)C[C@H](N[C@@H](c1ccccc1)C(F)(F)F)C(=O)N[C@@H](CCCC(=O)OC(C)(C)C)CNc1ccc(N2CCOCC2)cc1 [Compound 91]
IC50: ≤ 3.16 nM

CC(C)C[C@H](N[C@@H](c1ccccc1)C(F)(F)F)C(=O)N[C@@H](CCC#N)CNc1ccc(N2CCOCC2)cc1 [Compound 92]
IC50: ≤ 3.16 nM

CC(C)(F)C[C@H](N[C@@H](c1ccccc1)C(F)(F)F)C(=O)N[C@@H](CCC#N)CNc1ccc(N2CCOCC2)cc1 [Compound 94]
IC50: ≤ 3.16 nM
